According to patent US6562830B1, “Method of treating a patient having precancerous lesions with phenyl quinazolinone derivatives” (Cell Pathways, Inc., priority 1999, dated 2003):

Row | SMILES | melting point [°C]
1 | CCCOc1ccccc1-c1nc2cc(N)ccc2c(=O)[nH]1 [Example 26, 7-Amino-2-(2-Propoxyphenyl)-4(3H)-quinazolinone] | 185
2 | CCCOc1ccccc1-c1nc2cc(NC)ccc2c(=O)[nH]1 [Example 27, 7-Methylamino-2-(2-Propoxyphenyl)-4(3H)-quinazolinone] | 204 to 205
